Data taken from BindingDB's records for doi:10.7270/Q28G8J4C (Broad Institute, 2009).

Target: T1, POsterior Segregation (Caenorhabditis elegans, UniProt G5EF15)
T1 sequence (G5EF15 whole entry): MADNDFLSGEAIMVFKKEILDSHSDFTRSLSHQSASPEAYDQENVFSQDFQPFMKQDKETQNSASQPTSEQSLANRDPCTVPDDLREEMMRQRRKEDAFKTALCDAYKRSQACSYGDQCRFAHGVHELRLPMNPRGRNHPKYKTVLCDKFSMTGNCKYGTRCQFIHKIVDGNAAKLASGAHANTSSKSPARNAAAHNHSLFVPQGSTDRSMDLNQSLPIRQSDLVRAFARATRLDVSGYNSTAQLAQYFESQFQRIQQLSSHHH
Assay: disruptors of C. elegans POS-1 RNA interaction – biochemical, fluorescence polarization, dose response (AID 1964)

SMILES | EC50 [µM]
NC(=O)c1ccccc1N=CCC(=O)c1ccc(F)cc1 [2-[[(E)-3-(4-fluorophenyl)-3-keto-prop-1-enyl]amino]benzamide] | > 300
CCn1nc(C)c(C=C2CCCC3=C2OC(=N)C(C#N)C3c2c(C)nn(CC)c2C)c1C (stereo not drawn) [(8E)-2-amino-4-(1-ethyl-3,5-dimethyl-1H-pyrazol-4-yl)-8-[(1-ethyl-3,5-dimethyl-1H-pyrazol-4-yl)methylene]-5,6,7,8-tetrahydro-4H-chromene-3-carbonitrile] | 36
Cc1sc2ncnc(N=NC(C)c3ccccn3)c2c1C (stereo not drawn) [5,6-dimethyl-N-(1-pyridin-2-ylethylideneamino)thieno[2,3-d]pyrimidin-4-amine] | 23.3
Cn1cc(C=C2C(=O)NC(=O)N(c3ccccc3)C2=O)c2ccccc21 [SMR000559087] | 5.28
Cc1ccc(Cl)c2c1NC(=O)/C2=C1/NC(=S)NC1=O | 14.3
Cc1n[nH]c(C)c1Sc1ccccc1/N=C/C1C=C(Cl)C=C([N+](=O)[O-])C1=O (stereo not drawn) [(6E)-4-chloranyl-6-[[[2-[(3,5-dimethyl-1H-pyrazol-4-yl)sulfanyl]phenyl]amino]methylidene]-2-nitro-cyclohexa-2,4-dien-1-one] | > 300
O=C1C(=O)N(c2ncccn2)C(c2cccs2)C1C(=O)c1ccco1 (stereo not drawn) [3-(furan-2-carbonyl)-4-hydroxy-1-pyrimidin-2-yl-2-thiophen-2-yl-2H-pyrrol-5-one] | 39.9
CCOc1cc(C=C2SC(Nc3ccc(CC)cc3)=NC2=O)ccc1OCC(=O)O [2-[2-ethoxy-4-[(Z)-[2-(4-ethylanilino)-4-oxo-1,3-thiazol-5-ylidene]methyl]phenoxy]acetic acid] | 25.6
CSc1nnc(N2C(=O)C(=O)C(C(=O)c3ccco3)C2c2ccc(F)cc2)s1 (stereo not drawn) [2-(4-fluorophenyl)-3-(furan-2-carbonyl)-4-hydroxy-1-(5-methylsulfanyl-1,3,4-thiadiazol-2-yl)-2H-pyrrol-5-one] | 150
O=c1c2ccccc2nc(N=NCc2ccc(O)cc2)n1O [3-Hydroxy-2-{N'-[1-(4-hydroxy-phenyl)-meth-(E)-ylidene]-hydrazino}-3H-quinazolin-4-one] | > 300
c1ccc(CN=Nc2nc3ccccc3[nH]2)nc1 | 72.9
O=C1NC(=O)N(Cc2ccccc2)C(=O)C1=CNc1ccc(CN2CCOCC2)cc1 [(5E)-1-benzyl-5-[[4-(morpholin-4-ylmethyl)anilino]methylidene]-1,3-diazinane-2,4,6-trione] | > 300
COc1ccc(C(=O)CC=Nc2ccc([N+](=O)[O-])cc2C)c(OC)c1 [(E)-1-(2,4-dimethoxyphenyl)-3-(2-methyl-4-nitro-anilino)prop-2-en-1-one] | > 300
CC1(C)CC(=O)C2Sc3ccccc3N=C2C1 (stereo not drawn) [2,2-Dimethyl-2,3-dihydro-1H,10H-phenothiazin-4-one] | 43.9
Cc1ccc(C2C(C(=O)c3ccco3)C(=O)C(=O)N2c2nnc(C)s2)cc1 (stereo not drawn) [3-(furan-2-carbonyl)-4-hydroxy-2-(4-methylphenyl)-1-(5-methyl-1,3,4-thiadiazol-2-yl)-2H-pyrrol-5-one] | > 300
COc1cc(C2C3=C(CC(C)(C)CC3=O)OC(=N)C2C#N)ccc1OCCN1CCOCC1 (stereo not drawn) [MLS000779948] | > 300
COc1cc(C2C3=C(CCCC3=O)OC(=N)C2C#N)cc2c1OCO2 (stereo not drawn) | > 300
Cc1cc(=O)[nH]c(N=NCc2ccc(O)c(O)c2)n1 [MLS001194906] | 99.3
C=CCOc1cccc(C2C(C(=O)c3ccc(C)o3)C(=O)C(=O)N2c2nccs2)c1 (stereo not drawn) [3-(5-methylfuran-2-yl)carbonyl-4-oxidanyl-2-(3-prop-2-enoxyphenyl)-1-(1,3-thiazol-2-yl)-2H-pyrrol-5-one] | > 300
O=C1NC(=O)N(CCc2ccccc2)C(=O)C1=CNCCCn1ccnc1 [(5E)-5-[(3-imidazol-1-ylpropylamino)methylene]-1-phenethyl-barbituric acid] | > 300
Cc1ccc(C(=O)Cc2nc3ccccc3oc2=O)cc1 [(3Z)-3-[2-(4-methylphenyl)-2-oxidanylidene-ethylidene]-4H-1,4-benzoxazin-2-one] | > 300
O=C(NN=CC1=CC(=O)C(=O)CC1)NN=CC1=CC(=O)C(=O)CC1 [1,3-bis[[(Z)-(3-hydroxy-4-oxocyclohexa-2,5-dien-1-ylidene)methyl]amino]urea] | 16.2
COc1ccc(CCN2C(=O)NC(=O)C(=CNNC(=O)c3ccncc3)C2=O)cc1OC [Isonicotinic acid N'-[1-[2-(3,4-dimethoxy-phenyl)-ethyl]-2,4,6-trioxo-tetrahydro-pyrimidin-(5E)-ylidenemethyl]-hydrazide] | 150
COC1=CC(CN=Nc2[nH]c(=O)nnc2C)C=C([N+](=O)[O-])C1=O (stereo not drawn) [5-[[(E)-(3-methoxy-5-nitro-4-oxo-1-cyclohexa-2,5-dienylidene)methyl]hydrazo]-6-methyl-2H-1,2,4-triazin-3-one] | 7.98

SMILES | EC50 [µM]
COc1ccc(OC)c(C2C(C(=O)c3ccco3)C(=O)C(=O)N2CCN2CCOCC2)c1 (stereo not drawn) [2-(2,5-dimethoxyphenyl)-3-(furan-2-carbonyl)-4-hydroxy-1-(2-morpholin-4-ylethyl)-2H-pyrrol-5-one] | > 300
O=[N+]([O-])c1cc([CH+][N-]n2c(O)csc2=S)ccc1Cl [3-[(4-chloranyl-3-nitro-phenyl)methylideneamino]-2-sulfanylidene-1,3-thiazolidin-4-one] | 18.6
Cc1ccc2oc(=O)c(CC(=O)CC(C)C)nc2c1 [(3Z)-3-(2-keto-4-methyl-pentylidene)-6-methyl-4H-1,4-benzoxazin-2-one] | > 300
C=CCn1c(=O)c(=Cc2ccc(C)o2)s/c1=C(\C#N)C(=O)c1ccccc1 [2-[3-allyl-4-keto-5-[(5-methyl-2-furyl)methylene]thiazolidin-2-ylidene]-3-keto-3-phenyl-propionitrile] | 30.7
CC(C)c1ccc(C2C(C#N)=C3Sc4ccccc4N3C(=N)C2C#N)cc1 (stereo not drawn) [1-amino-3-(4-propan-2-ylphenyl)-3H-pyrido[2,1-b][1,3]benzothiazole-2,4-dicarbonitrile] | 33
Oc1csc(N=NCc2cccs2)n1 [2-[2-(thiophen-2-ylmethylidene)hydrazinyl]-1,3-thiazol-4-one] | > 300
N#CC1C(=N)OC2=C(C(=O)CCC2)C1c1cc2c(cc1Cl)OCO2 (stereo not drawn) [MLS001183950] | > 300
O=C1NC(=O)N(CCc2ccccc2)C(=O)C1=CNNC(=O)c1ccncc1 [N'-[(E)-[2,4,6-trioxo-1-(2-phenylethyl)-1,3-diazinan-5-ylidene]methyl]-4-pyridinecarbohydrazide] | > 300
Cc1c(NC=C2C(=O)NC(=O)N(Cc3ccco3)C2=O)c(=O)n(-c2ccccc2)n1C [(5E)-1-(2-furfuryl)-5-[[(3-keto-1,5-dimethyl-2-phenyl-3-pyrazolin-4-yl)amino]methylene]barbituric acid] | > 300
O=C(c1ccccc1)[C@@H]1c2c(c(O)n(-c3ccc(F)cc3)c2O)C2CCCN21 (stereo partly drawn) [MLS000769629] | 37.9
COc1cccc(C2C3=C(CCCC3=O)OC(=N)C2C#N)c1OC(=O)c1ccco1 (stereo not drawn) [2-(2-amino-3-cyano-5-oxo-5,6,7,8-tetrahydro-4H-chromen-4-yl)-6-methoxyphenyl 2-furoate] | > 300
CSc1nnc(N2C(=O)C(=O)C(C(=O)c3ccco3)C2c2cccc(Cl)c2)s1 (stereo not drawn) [2-(3-chlorophenyl)-3-(furan-2-carbonyl)-4-hydroxy-1-(5-methylsulfanyl-1,3,4-thiadiazol-2-yl)-2H-pyrrol-5-one] | 31.3
[H]/N=C1/OC23CCCCC2C(C#N)(C#N)C1(C#N)C(c1ccc(OC)cc1)O3 (stereo not drawn) [MLS000554241] | 12.4
COc1ccc(NC=C2C(=O)NC(=S)N(Cc3ccccc3)C2=O)c(OC)c1 [1-Benzyl-5-[1-(2,4-dimethoxy-phenylamino)-meth-(Z)-ylidene]-2-thioxo-dihydro-pyrimidine-4,6-dione] | > 300
COc1ccc(C2C(C(C)=O)=C(C)N=c3sc(=Cc4cc(C)n(C)c4C)c(=O)n32)c(OC)c1 (stereo not drawn) | 10.9
O=C1NC(=O)N(CCc2ccc(F)cc2)C(=O)C1=CNNC(=O)c1ccccc1 [N'-[(E)-[1-[2-(4-fluorophenyl)ethyl]-2,4,6-trioxo-1,3-diazinan-5-ylidene]methyl]benzohydrazide] | > 300
CC(=O)C1C(c2ccccc2)=NC(=O)NC1c1ccc(O)c(O)c1 (stereo not drawn) [4-[3,4-bis(oxidanyl)phenyl]-5-ethanoyl-6-phenyl-3,4-dihydro-1H-pyrimidin-2-one] | > 300
CCOC(=O)N1CCC2=C(C#N)C(=N)C(C#N)(C#N)[C@H](c3ccsc3)[C@H]2C1 [(8R,8aR)-6-amino-5,7,7-tricyano-8-(3-thienyl)-1,3,8,8a-tetrahydroisoquinoline-2-carboxylic acid ethyl ester] | 78.8
Cc1[nH]n(C(N)=S)c(=O)c1N=Nc1cccc(C(=O)O)c1 [3-[(1-carbamothioyl-3-methyl-5-oxo-4H-pyrazol-4-yl)diazenyl]benzoic acid] | 35.1
CCC(C)N1C(=O)C(=CNNc2nc3c(c(=O)n(C)c(=O)n3C)n2C)C(=O)NC1=S (stereo not drawn) [8-[2-[(Z)-(1-butan-2-yl-4,6-dioxo-2-sulfanylidene-1,3-diazinan-5-ylidene)methyl]hydrazinyl]-1,3,7-trimethylpurine-2,6-dione] | > 300
COc1cccc(C2C3=C(CC(c4ccco4)CC3=O)OC(=N)C2C#N)c1OCc1ccc(F)cc1 (stereo not drawn) [SMR000021029] | > 300
CC1=NC(c2ccccc2)C(C#N)(C#N)C(C#N)(C#N)C1 (stereo not drawn) [SMR000037705] | 3.14
COc1[nH]c(N=Cc2ccccc2)c(C#N)c1C#N [2-methoxy-5-[(phenylmethylene)amino]-1H-pyrrole-3,4-dicarbonitrile] | 6.46
COc1ccc(C(=O)Nc2nnc(CC(=O)NN=Cc3ccc(O)cc3O)s2)cc1 [4-methoxy-N-[5-[2-oxidanylidene-2-[2-[(E)-(2-oxidanyl-4-oxidanylidene-cyclohexa-2,5-dien-1-ylidene)methyl]hydrazinyl]ethyl]-1,3,4-thiadiazol-2-yl]benzamide] | 125
